The numbers were not newly measured in PMC12210654, “Palazestrant, a novel oral Complete Estrogen Receptor Antagonist (CERAN) and Selective Estrogen Receptor Degrader (SERD), in patients with ER+/HER2− advanced or metastatic breast cancer: phase 1/2 study results” (Breast Cancer Research : BCR, 2025), which cites them from elsewhere.

On the set-up of this series: method as in PMID 38102750. The note with it: preclinical; cited from earlier work.

With `CCCN1CC(Oc2ccc([C@@H]3c4[nH]c5ccccc5c4C[C@@H](C)N3CC(C)(C)F)cc2)C1` [palazestrant, Palazestrant], the “pharmacokinetics relative to fulvestrant and elacestrant” value is reported as “superior pharmacokinetics”.
